Results on 17 molecules are retold here after US20110020312A1, “METHODS FOR TREATMENT OF METABOLIC DISORDERS USING EPIMETABOLIC SHIFTERS, MULTIDIMENSIONAL INTRACELLULAR MOLECULES, OR ENVIRONMENTAL INFLUENCERS” (priority 2009, published 2011).

In test [1] the test system is Succinate Dehydrogenase (SDH) Subunit B. Put plainly: Western blot, Succinate Dehydrogenase B in mitochondrial preparations. The test is classed as cell-based. Conditions: NCIE0808 Mitopreps, 50 uM, 3 h. The protocol: The above blots were stripped by incubating for 30 minutes with methanol, followed by two 10 minute washes with TBS-T, then 30 minutes of incubation with Stripping buffer at 50 deg C., and followed by two washes with 100 ml or more of TBS-T for 30′ each. The blots were scanned in laser scanner to check for complete stripping. The blots were activated with methanol for 5 seconds, washed with water for 5 minutes, and TBST for 15 minutes. The blots were blocked for 1 hour with 5% blocking reagent in TBS-T at room temperature and then washed 3 times with TBS-T (1×-15′; 2×5′ each) and probed with the primary antibody for PKM2, SDHB or SDHC in 5% BSA in TBS-T by incubation overnight at 4 deg C. with gentle shaking. The primary antibody for SDHC (ABNOVA H00006391-MO2; antimouse) was at 1:500 dilution. The primary antibody for SDHB was from Abcam ab4714-200; antimouse; at 1:1000 dilution. The primary antibody for Pyruvate Kinase M2 (PKM2) was from Novus Biologicals H00005315-D0IP; antirabbit; at 1:500 dilution. After incubation with primary antibodies, the membranes were washed 3 times with TBS-T (1×-15′; 2×5′ each) and probed with the secondary antibody (SDHB & C antimouse; and PKM2 antirabbit; 1:10,000 dilution) for 1 h on the orbital tilting shaker at room temperature. After 1 h of incubation, the blots were washed 3 times with TBS-T (1×-15′; 2×5′ each) and incubated with ECF reagent for 5 minutes and then each blot scanned with 5100 Fuji Laser scanner at 25 uM resolution, 16 bit, green laser, at 400V and at 500 V.
In general terms: Immunoblotting shows a protein as a band on a membrane.

The test system of a further test is Bcl-2. As to the kind of experiment: Western blot of building block components, Bcl-2 expression in Skmel-28 melanoma cells. Conditions: for Bcl-2 reduction or Caspase-3 increase: 500 nM, 1 μM, 25 μM and 50 μM. The test is classed as cell-based. More on the design: key to Bcl-2 expression: X: a decrease in Bc1-2 expression for most of the concentrations and combinations tested as depicted in the table below. As for the experimental part:
(§1) Skmel-28 melanoma cells were cultured in DMEM/F12 supplemented with 5% Fetal Bovine Serum (FBS) and 1× final concentration of Antibiotics. The cells were grown to 85% confluency and treated with building block components for 3, 6, 12 and 24 hours. The cells were then pelleted and a Western blot analysis was performed.
(§2) The test building block components included L-Phenylylalanine, DL-Phenylyalanine, D-Phenylylalanine, L-Tyrosine, DL-Tyrosine, D-Tyrosine, 4-Hydroxy-phenylpyruvate, phenylacetate, 3-methoxy-4-hydroxymandelate (vanillylmandelate or VMA), vanillic acid, 4-hydroxy-benzoate, pyridoxine, panthenol, mevalonic acid, Acetylglycine, Acetyl-CoA, Farnesyl, and 2,3-Dimethoxy-5-methyl-p-benzoquinone.
(§3) In the Western Blot Analysis, the cells were pelleted in cold PBS, lysed, and the protein levels were quantified using a BCA protein assay. The whole cell lysate was loaded in a 4% loading 12% running Tris-HCl gel. The proteins were then transferred to a nitrocellulose paper then blocked with a 5% milk Tris-buffered solution for 1 hour. The proteins were then exposed to primary antibodies (Bcl-2 and Caspase-3) overnight. The nitrocellulose paper was then exposed to Pico Chemilluminescent for 5 min and the protein expression was recorded. After exposure, actin was quantified using the same method. Using ImageJ the levels of protein expression were quantified. A t-Test was used to analyze for statistical significance.

The next test deals with Caspase-3. Put plainly: Western blot of building block components, Caspase-3 expression in Skmel-28 melanoma cells. Type of test: cell-based. As for the experimental part: as §1, §2, §3
The subject of a further test is HDFa cells. As to the kind of experiment: Extracellular acidification rate (ECAR), SeaHorse XF analyzer. The note with it: HDFa. The test is classed as cell-based, human. The text has this: Environmental influencers (e.g., MIMs or Epi-shifters) may also be identified by changes in cellular energetics. One example of the measurement of cellular energetics are the real-time measures of the consumption of molecular oxygen and/or the change in pH of the media of a cell culture. For example, the ability of a potential epi-shifter to modulate the metabolic state of a cell may be analyzed using, for example, the XF24 Analyzer (Seahorse, Inc.). This technology allows for real time detection of oxygen and pH changes in a monolayer of cells in order to evaluate the bioenergetics of a cell microenvironment. The XF24 Analyzer measures and compares the rates of oxygen consumption (OCR), which is a measure of aerobic metabolism, and extracellular acidification (ECAR), which is a measure of glycolysis, both key indicators of cellular energetics.
(SeaHorse Biosciences Inc, North Billerica, Mass.).
In this experiment, the OCR and extracellular acidification rate (ECAR) in normal cells lines were obtained in the presence and absence of CoQ10 to determine baseline values. It was observed that in its native nutrient environment, the basal OCR rates in normal cells lines are different, and are usually a function of the physiological roles of the cells in the body.
Table 51 below describes the ECAR values (mpH/min) in HDFa cells in the presence or absence of CoQ10 under normoxic and hypoxic conditions at 5.5 mM and 22 mM glucose.

The next test relates to cancer cells. The note with it: cited from earlier work.

Consider `COC1=C(OC)C(=O)C(C/C=C(\C)CC/C=C(\C)CC/C=C(\C)CC/C=C(\C)CC/C=C(\C)CC/C=C(\C)CC/C=C(\C)CC/C=C(\C)CC/C=C(\C)CCC=C(C)C)=C(C)C1=O` [Coezyme Q10], for which, in test [1], the “Succinate Dehydrogenase B Average Normalized Volume” value was 634.
For `NC(Cc1ccccc1)C(=O)O` (racemic) [DL-Phenylalanine], the Bcl-2 expression entry in the test on Bcl-2 (24 hours, concentration not stated (5, 25, 100 μM tested)) was “statistically significant decrease”. The Caspase-3 expression entry in the test with Caspase-3 (3 hours, concentration not stated (5, 25, 100 μM tested)) was “statistically significant increase”.
For the molecule `N[C@H](Cc1ccccc1)C(=O)O` [D-Phenylalanine], the Bcl-2 expression result in the test on Bcl-2 (5 μM and 25 μM, 3 hours) is reported as “significant reduction”; in the test with Bcl-2 (5 μM, 25 μM and 100 μM, 6 hours), “significant reduction”. The Caspase-3 expression entry in the test on Caspase-3 (5 μM and 100 μM, 6 hours) is recorded as “significant increase”.
For the molecule `C[C@@](O)(CCO)CC(=O)O` [Mevalonic Acid], the “Bcl-2 reduction or Caspase-3 increase” value in the test on Bcl-2 was “no significant reduction in Bcl-2 expression or an increase in Caspase-3 expression”.
`Cc1ncc(CO)c(CO)c1O` [Pyridoxine]: the Bcl-2 expression entry in the test on Bcl-2 (24 hours (5, 25, 100 μM tested)) is on record as “significant reduction”.
Regarding `CC(=O)SCCNC(=O)CCNC(=O)[C@H](O)C(C)(C)COP(=O)(O)OP(=O)(O)OC[C@H]1O[C@@H](n2cnc3c(N)ncnc32)[C@H](O)[C@@H]1OP(=O)(O)O` [Acetyl-CoA], the “Bcl-2 reduction or Caspase-3 increase” value with Bcl-2 was “no significant observed reduction in Bcl-2 or increase in Caspase-3 expression”.
For the molecule `NC(Cc1ccc(O)cc1)C(=O)O` (racemic) [DL-Tyrosine], the Bcl-2 expression entry in the test with Bcl-2 (1 μM and 15 μM, 12 hours) was “statistical decrease”; in the test on Bcl-2 (5 μM, 24 hour (DL-Tyrosine series)), “statistical decrease”. The Caspase-3 expression entry in the test with Caspase-3 (5 μM and 15 μM, 12 hours) is given as “increase”.
Turning to `N[C@H](Cc1ccc(O)cc1)C(=O)O` [D-Tyrosine], the Bcl-2 expression entry with Bcl-2 (5 μM and 15 μM, 12 and 24 hours) is given as “reduction”. The Caspase-3 expression result was “increase” in the test on Caspase-3 (1 μM, 12 and 24 hour); “significantly increased” in the test with Caspase-3 (5 μM, 3, 12 and 24 time periods).
On to `N[C@@H](Cc1ccc(O)cc1)C(=O)O` [L-Tyrosine], for which the Bcl-2 expression result is reported as “statistically significant decrease” with Bcl-2 (5 μM, 24 hours); “statistically significant decrease” in the test with Bcl-2 (500 μM and 5 μM (so in the source), 24 hours). Further, the Caspase-3 expression result in the test with Caspase-3 (500 nM, 12 hours) is listed as “statistically significant increase”.
Regarding `COC1=C(OC)C(=O)C(C/C=C(\C)CC/C=C(\C)CC/C=C(\C)CC/C=C(\C)CC/C=C(\C)CC/C=C(\C)CC/C=C(\C)CC/C=C(\C)CC/C=C(\C)CCC=C(C)C)=C(C)C1=O` [compound 31510], the ECAR in the test on HDFa cells (Hypoxia (5.5 mM), 50 μM) turned out to be 5 mpH/min; with HDFa cells (Hypoxia (5.5 mM), 100 μM), 5 mpH/min; with HDFa cells (Hypoxia (22 mM), 50 μM), 6 mpH/min; with HDFa cells (Hypoxia (22 mM), 100 μM) it was 8 mpH/min; in the test on HDFa cells (Normoxia (5.5 mM), 50 μM), 6 mpH/min; with HDFa cells (Normoxia (5.5 mM), 100 μM), 6 mpH/min. The ECAR in the test on HDFa cells (Normoxia (22 mM), 50 μM) turned out to be 5 mpH/min; with HDFa cells (Normoxia (22 mM), 100 μM), 5 mpH/min.
As to `CC(C)(CO)[C@@H](O)C(=O)NCCCO` [Panthenol], the Bcl-2 expression result with Bcl-2 (25 μM) is reported as “significant reduction”.
For the molecule `N[C@@H](Cc1ccccc1)C(=O)O` [L-Phenylalanine], the Bcl-2 expression entry in the test on Bcl-2 (5 μM, 3 hr) was “X”; with Bcl-2 (5 μM, 6 hours) it was “statistically significant decrease”; in the test with Bcl-2 (25 μM, 3 hr), “X”; in the test with Bcl-2 (25 μM, 6 hr), “X”; with Bcl-2 (25 μM, 12 hours) it was “statistically significant decrease”; in the test with Bcl-2 (100 μM, 3 hours and 12 hours incubation) it was “statistically significant decrease”. The Bcl-2 expression entry with Bcl-2 (100 μM, 3 hr) is on record as “X”; in the test on Bcl-2 (100 μM, 6 hr), “X”; with Bcl-2 (100 μM, 24 hr), “X”. Also, the Caspase-3 expression entry in the test on Caspase-3 (25 μM, 12 hours) is recorded as “statistically significant increase”.
For `COc1cc(C(=O)O)ccc1O` [Vanillic Acid, Vanillic acid], the Bcl-2 expression entry is on record as “significantly reduce” in the test with Bcl-2 (500 nM and 5 μM, 24 hour); “reduction” in the test with Bcl-2 (15 μM, 3 hours). Besides, the Caspase-3 expression entry in the test with Caspase-3 (15 μM, 24 hours) is “significant increase”.
Regarding `CC(=O)NCC(=O)O` [Acetylglycine], the Bcl-2 expression result in the test with Bcl-2 (5 μM and 25 μM, 12 hours) is “significant decrease”; in the test with Bcl-2 (100 μM, 24 hour), “significant decrease”.
On to `O=C(O)C(=O)Cc1ccc(O)cc1` [4-Hydroxy-phenylpyruvate], for which, in the test on Bcl-2 (5 μM and 15 μM, 24 hours), the Bcl-2 expression result is recorded as “significant reduction”. Also, in the test with Caspase-3 (5 μM and 15 μM, 12 hours), the Caspase-3 expression entry is on record as “significant increase”.
As to `C=C1/C(=C\C=C2/CCC[C@]3(C)[C@@H]([C@H](C)CCCC(C)(C)O)CC[C@@H]23)C[C@@H](O)C[C@@H]1O` [Vitamin D3, 1α, 25-dihydroxyvitamin D3], in the test on cancer cells (reported (Deeb et al. 2007)), the “expression of anti-apoptotic proteins BCL2 and BCL-XL” value is on record as “repressing the expression”; the “expression of pro-apoptotic proteins (BAX, BAK and BAD)” value is recorded as “inducing the expression”; the “gene transcription of cyclin-dependent kinase inhibitor p21WAFI/CIPI” value is recorded as “induce gene transcription”. Moreover, the “expression of vascular endothelial growth factor (VEGF)” value with cancer cells (reported (Masuda and Jones, 2006)) is “inhibit the expression”.
On to `COc1cc(C(O)C(=O)O)ccc1O` (centres unmarked) [VMA, 3-methoxy-4-hydroxymandelate], for which, in the test on Bcl-2 (100 nM to 100 μM), the “apoptotic effect (Bcl-2/Caspase-3 Western blot)” value is “no statistically significant apoptotic effect” and the “trend of Bcl-2 expression” value is given as “downward trend”.
